# Results reported in patent publication US20030215462A1, “Use of UGT inhibitors to increase bioavailability” (priority 2001, published 2003).
# Values joined by “and” are separate entries in the source; they are usually repeats but may differ in a detail not shown here. Identical values can stand only once.
# Columns and labels:
# Format in all cases: biochemical
# [1] = system: T1, UGT enzymes of human liver microsomes; assay: Inhibition of 7-HFC glucuronidation in human liver microsomes; settings: for % of control metabolism (SD, n = 3), 7-HFC glucuronidation / IC50: 7-HFC 50 μM, 15 min; for % of control metabolism (SD, n = 3), 7-HFC glucuronidation: human liver microsomes 100 μg/ml; for IC50: 1 mM UDPGA
# T1 construct: percentage of control metabolism, 7-HFC glucuronidation; percentage of control metabolism, 7-HFC glucuronidation
# [2] = system: UGT enzymes of human liver microsomes; assay: Inhibition of raloxifene glucuronidation (G1, G2) in human liver microsomes; settings: raloxifene 50 μM, human liver microsomes 250 μg/ml, 15 min
# Text: Compounds were eluted using a binary solvent gradient system. […] Solvent B was methanol. […] Detection was at 280 nm.
# [3] = biological target: T2, UGT enzymes of human liver microsomes (Homo sapiens, UniProt P16662); assay: Inhibition of zidovudine glucuronidation in human liver microsomes; settings: liver lot 062101
# T2 construct: residual metabolism (percentage of control), zidovudine glucuronidation; other: liver lot 062101; residual metabolism (percentage of control), zidovudine glucuronidation; residual metabolism (percentage of control)
# T2 sequence (P16662 1-529): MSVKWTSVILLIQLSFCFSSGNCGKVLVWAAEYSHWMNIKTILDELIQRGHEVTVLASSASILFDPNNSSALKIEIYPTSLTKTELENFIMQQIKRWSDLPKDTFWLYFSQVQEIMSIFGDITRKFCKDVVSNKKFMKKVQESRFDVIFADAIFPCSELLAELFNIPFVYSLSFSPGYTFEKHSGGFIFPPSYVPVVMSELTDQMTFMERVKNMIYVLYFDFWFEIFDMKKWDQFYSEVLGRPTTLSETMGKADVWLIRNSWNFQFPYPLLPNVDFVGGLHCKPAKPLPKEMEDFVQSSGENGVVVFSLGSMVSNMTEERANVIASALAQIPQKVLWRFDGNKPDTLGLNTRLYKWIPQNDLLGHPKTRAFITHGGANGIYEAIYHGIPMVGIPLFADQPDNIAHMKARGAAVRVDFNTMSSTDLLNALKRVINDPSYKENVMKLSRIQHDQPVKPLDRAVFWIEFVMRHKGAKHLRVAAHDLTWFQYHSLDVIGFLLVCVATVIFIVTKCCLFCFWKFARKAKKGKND
# Experimental: Compounds were eluted using a binary solvent gradient system where solvent A was dilute phosphoric acid (pH 3) and solvent B was acetonitrile.
# Standardized incubations utilized 500 μM zidovudine substrate, 1 mg/ml microsomal protein, 5 mM UDPGA and a 30 min incubation time. […] Int.
structure (smiles),measurement,setting,value
COc1c2ccoc2cc2oc(=O)ccc12 [5-Methoxypsoralen (bergapten)],"% of control metabolism (SD, n = 3), 7-HFC glucuronidation",[1]; inhibitor 500 μM,"97 (1), % and 92 (1) %"
Cc1cn([C@H]2C[C@H](N=[N+]=[N-])[C@@H](CO[C@@H]3O[C@H](C(=O)O)[C@@H](O)[C@H](O)[C@H]3O)O2)c(=O)[nH]c1=O [AZT glucuronide],"% of control metabolism (SD, n = 3), 7-HFC glucuronidation",[1]; inhibitor 500 μM,103 (1) %
"CN(C)CCC=C1c2ccccc2CCc2ccccc21 [Amitriptyline, reference compound]","% of control metabolism (SD, n = 3), 7-HFC glucuronidation",[1]; inhibitor 500 μM,94 (1) %
same,"% of control metabolism (SD, n = 3), raloxifene glucuronide G1",[2]; inhibitor 500 μM,138 (6) %
same,"% of control metabolism (SD, n = 3), raloxifene glucuronide G2",[2]; inhibitor 500 μM,132 (5) %
O=C1O[C@H]([C@@H](O)CO)C(O)=C1O [Ascorbic acid],"% of control metabolism (SD, n = 3), 7-HFC glucuronidation",[1]; inhibitor 500 μM,99 (1) %
CCCCCCCCCCCCCCCC(=O)OC[C@H](O)[C@H]1OC(=O)C(O)=C1O [Ascorbyl palmitate],IC50,[1],200 µM
same,"percentage of control metabolism, 7-HFC glucuronidation",[1]; inhibitor 100 μM,64 (1) %
same,"% of control metabolism (SD, n = 3), 7-HFC glucuronidation",[1]; inhibitor 100 μM,64 (1) %
same,"percentage of control metabolism, 7-HFC glucuronidation",[1]; inhibitor 200 μM,51 (1) %
same,"% of control metabolism (SD, n = 3), 7-HFC glucuronidation",[1]; inhibitor 200 μM,51 (1) %
same,"percentage of control metabolism, 7-HFC glucuronidation",[1]; inhibitor 500 μM,11 (3) % and 17 (0) %
same,"% of control metabolism (SD, n = 3), 7-HFC glucuronidation",[1]; inhibitor 500 μM,"11 (3), % and 17 (0) %"
same,"% of control metabolism (SD, n = 3), raloxifene glucuronide G1",[2]; inhibitor 100 μM,57 (2) %
same,"% of control metabolism (SD, n = 3), raloxifene glucuronide G1",[2]; inhibitor 500 μM,26 (1) %
same,"% of control metabolism (SD, n = 3), raloxifene glucuronide G2",[2]; inhibitor 100 μM,71 (4) %
same,"% of control metabolism (SD, n = 3), raloxifene glucuronide G2",[2]; inhibitor 500 μM,36 (5) %
CCCCCCCCCCCCCCCCCC(=O)OC[C@H](O)[C@H]1OC(=O)C(O)=C1O [Ascorbyl stearate],"% of control metabolism (SD, n = 3), 7-HFC glucuronidation",[1]; inhibitor 500 μM,73 (2) %
"CCCC(=O)OCC(O)C1OC(=O)C(OC(=O)CCC)=C1O (centres unmarked) [Ascorbyl-2,6-dibutyrate]","% of control metabolism (SD, n = 3), 7-HFC glucuronidation",[1]; inhibitor 500 μM,92 (1) %
CCCCCCCCCCCCCCCC(=O)O[C@H]1CC[C@@]2(C)C(=CC[C@H]3[C@@H]4CC[C@H]([C@H](C)CCCC(C)C)[C@@]4(C)CC[C@@H]32)C1 [Cholesteryl palmitate],"% of control metabolism (SD, n = 3), 7-HFC glucuronidation",[1]; inhibitor 500 μM,100 (3) %
O=C(O)C=Cc1ccccc1 [Cinnamic acid],"residual metabolism (percentage of control), zidovudine glucuronidation",[3]; inhibitor 500 μM,97 (3) %
same,"% of control metabolism (SD, n = 3), 7-HFC glucuronidation",[1]; inhibitor 500 μM,94 (2) %
OCC=Cc1ccccc1 [Cinnamyl alcohol],"% of control metabolism (SD, n = 3), 7-HFC glucuronidation",[1]; inhibitor 500 μM,87 (1) %
COc1cc(/C=C/CO)ccc1O [Coniferol],"% of control metabolism (SD, n = 3), 7-HFC glucuronidation",[1]; inhibitor 500 μM,87 (0) %
C[C@]12CC[C@@H]3c4ccc(O)cc4CC[C@H]3[C@@H]1C[C@@H](O)[C@@H]2O [Estriol],"% of control metabolism (SD, n = 3), 7-HFC glucuronidation",[1]; inhibitor 500 μM,84 (2) %
same,"% of control metabolism (SD, n = 3), raloxifene glucuronide G1",[2]; inhibitor 500 μM,46 (3) %
same,"% of control metabolism (SD, n = 3), raloxifene glucuronide G2",[2]; inhibitor 500 μM,60 (3) %
CCCCCCCCCCCCCCCC(=O)OCC [Ethyl palmitate],"% of control metabolism (SD, n = 3), 7-HFC glucuronidation",[1]; inhibitor 500 μM,89 (3) %
O=C(O)c1cc(O)c(O)c(O)c1 [Gallic acid],"% of control metabolism (SD, n = 3), 7-HFC glucuronidation",[1]; inhibitor 500 μM,117 (2) %
CC(C)=CCC/C(C)=C/CO [Geraniol],"residual metabolism (percentage of control), zidovudine glucuronidation",[3]; inhibitor 100 μM,77 (5) %
same,"residual metabolism (percentage of control), zidovudine glucuronidation",[3]; inhibitor 200 μM,62 (3) %
same,"residual metabolism (percentage of control), zidovudine glucuronidation",[3]; inhibitor 500 μM,28 (3) % and 25 (0) %
same,"residual metabolism (percentage of control), zidovudine glucuronidation",[3]; inhibitor 1000 μM,9 (1) %
same,"% of control metabolism (SD, n = 3), 7-HFC glucuronidation",[1]; inhibitor 500 μM,75 (0) %
"COc1ccc2c(c1)c(CC(=O)O)c(C)n2C(=O)c1ccc(Cl)cc1 [Indomethacin, reference compound]","residual metabolism (percentage of control), zidovudine glucuronidation",[3]; inhibitor 500 μM,68 (7) %
same,"% of control metabolism (SD, n = 3), 7-HFC glucuronidation",[1]; inhibitor 100 μM,82 (0) %
same,"% of control metabolism (SD, n = 3), 7-HFC glucuronidation",[1]; inhibitor 200 μM,73 (1) %
same,"% of control metabolism (SD, n = 3), 7-HFC glucuronidation",[1]; inhibitor 500 μM,"49 (2), % and 48 (1) %"
CCCCCCCCCCCCOC(=O)c1cc(O)c(O)c(O)c1 [Lauryl gallate],IC50,[1],100 µM
same,"percentage of control metabolism, 7-HFC glucuronidation",[1]; inhibitor 25 μM,92 (3) %
same,"% of control metabolism (SD, n = 3), 7-HFC glucuronidation",[1]; inhibitor 25 μM,92 (3) %
same,"percentage of control metabolism, 7-HFC glucuronidation",[1]; inhibitor 50 μM,76 (2) %
same,"% of control metabolism (SD, n = 3), 7-HFC glucuronidation",[1]; inhibitor 50 μM,76 (2) %
same,"percentage of control metabolism, 7-HFC glucuronidation",[1]; inhibitor 100 μM,43 (2) % and 49 (1) %
same,"% of control metabolism (SD, n = 3), 7-HFC glucuronidation",[1]; inhibitor 100 μM,43 (2) % and 49 (1) %
same,"percentage of control metabolism, 7-HFC glucuronidation",[1]; inhibitor 200 μM,22 (1) %
same,"% of control metabolism (SD, n = 3), 7-HFC glucuronidation",[1]; inhibitor 200 μM,22 (1) %
same,"percentage of control metabolism, 7-HFC glucuronidation",[1]; inhibitor 500 μM,18 (6) %
same,"% of control metabolism (SD, n = 3), 7-HFC glucuronidation",[1]; inhibitor 500 μM,18 (6) %
same,"% of control metabolism (SD, n = 3), raloxifene glucuronide G1",[2]; inhibitor 100 μM,64 (4) %
same,"% of control metabolism (SD, n = 3), raloxifene glucuronide G1",[2]; inhibitor 500 μM,7 (0) %
same,"% of control metabolism (SD, n = 3), raloxifene glucuronide G2",[2]; inhibitor 100 μM,85 (3) %
same,"% of control metabolism (SD, n = 3), raloxifene glucuronide G2",[2]; inhibitor 500 μM,37 (1) %
